Legend:
[1] = system: human colon tumour cell line HT29; test: Cellular Assay (phosphohistone H3 Ser10 mitotic marker, HT29); assay type: cell-based; conditions: HT-29, 24 h, HT29 cells, read-out: IC50 (cellular assay, phosphohistone H3)
recombinant Plk1 = recombinant Plk1 (Homo sapiens, UniProt P53350); test: In Vitro Plk1 Enzyme Assay (SPA, GST-Cdc25C phosphorylation); assay type: biochemical; conditions: ATP 64 nM, 90 minutes, read-out: IC50 (Plk1 enzyme inhibition)
Chain of recombinant Plk1 (P53350 whole entry): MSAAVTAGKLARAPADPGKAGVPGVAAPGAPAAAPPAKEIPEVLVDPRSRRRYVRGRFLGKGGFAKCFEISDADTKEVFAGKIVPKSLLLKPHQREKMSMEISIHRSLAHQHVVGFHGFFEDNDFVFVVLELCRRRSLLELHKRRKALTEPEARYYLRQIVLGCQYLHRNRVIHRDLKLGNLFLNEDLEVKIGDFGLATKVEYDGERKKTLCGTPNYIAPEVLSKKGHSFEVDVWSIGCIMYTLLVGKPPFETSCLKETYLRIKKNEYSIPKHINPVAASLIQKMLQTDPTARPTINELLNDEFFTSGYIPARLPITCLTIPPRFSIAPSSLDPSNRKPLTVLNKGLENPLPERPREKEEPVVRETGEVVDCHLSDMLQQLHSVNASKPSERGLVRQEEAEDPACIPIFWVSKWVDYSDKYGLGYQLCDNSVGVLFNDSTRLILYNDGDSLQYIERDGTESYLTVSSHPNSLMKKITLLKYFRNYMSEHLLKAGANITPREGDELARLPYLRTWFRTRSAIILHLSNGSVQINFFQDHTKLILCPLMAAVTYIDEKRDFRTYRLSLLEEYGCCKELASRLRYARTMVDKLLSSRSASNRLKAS

| SMILES | IC50 [1] [nM] | IC50 (recombinant Plk1) [nM] |
| --- | --- | --- |
| CN1CCC(NC(=O)c2ccc(Nc3ncc4c(n3)N(C3CCCC3)CCC(=O)N4C)c(OC(F)(F)F)c2)CC1 [Example 199, 4-[(6-cyclopentyl-2-methyl-3-oxo-2,6,8,10-tetrazabicyclo[5.4.0]undeca-8,10,12-trien-9-yl)amino]-N-(1-methyl-4-piperidyl)-3-(trifluoromethoxy)benzamide] | < 300 | < 100000 |
| COc1cc(C(=O)NCCN2CCCCC2)ccc1Nc1ncc2c(n1)N(C(C)C)CCC(=O)N2C [Example 205, 3-methoxy-4-[(2-methyl-3-oxo-6-propan-2-yl-2,6,8,10-tetrazabicyclo[5.4.0]undeca-7,9,11-trien-9-yl)amino]-N-[2-(1-piperidyl)ethyl]benzamide] | < 300 | < 100000 |
| COc1cc(C(=O)NC2CN3CCC2CC3)ccc1Nc1ncc2c(n1)N(C(C)C)CCC(=O)N2C (stereo not shown) [Example 206, N-(1-azabicyclo[2.2.2]oct-8-yl)-3-methoxy-4-[(2-methyl-3-oxo-6-propan-2-yl-2,6,8,10-tetrazabicyclo[5.4.0]undeca-7,9,11-trien-9-yl)amino]benzamide] | < 300 | < 300 |
| COc1cc(C(=O)NCCN(C)C)ccc1Nc1ncc2c(n1)N(C(C)C)CCC(=O)N2C [Example 207, N-(2-dimethylaminoethyl)-3-methoxy-4-[(2-methyl-3-oxo-6-propan-2-yl-2,6,8,10-tetrazabicyclo[5.4.0]undeca-7,9,11-trien-9-yl)amino]benzamide] | < 300 | < 300 |
| CCN1CCC(=O)N(C)c2cnc(Nc3ccc(C(=O)NC4CCN(C)CC4)cc3OC)nc21 [Example 210, 4-[(6-ethyl-2-methyl-3-oxo-2,6,8,10-tetrazabicyclo[5.4.0]undeca-7,9,11-trien-9-yl)amino]-3-methoxy-N-(1-methyl-4-piperidyl)benzamide] | < 300 | < 300 |
| COc1cc(C(=O)NC2CCN(C)CC2)ccc1Nc1ncc2c(n1)N(CC1CC1)CCC(=O)N2C [Example 213, 4-[[6-(cyclopropylmethyl)-2-methyl-3-oxo-2,6,8,10-tetrazabicyclo[5.4.0]undeca-8,10,12-trien-9-yl]amino]-3-methoxy-N-(1-methyl-4-piperidyl)benzamide] | < 300 | < 300 |
| COc1cc(C(=O)NCCN2CCOCC2)ccc1Nc1ncc2c(n1)N(C(C)C)CCC(=O)N2C [Example 219, 3-methoxy-4-[(2-methyl-3-oxo-6-propan-2-yl-2,6,8,10-tetrazabicyclo[5.4.0]undeca-7,9,11-trien-9-yl)amino]-N-(2-morpholin-4-ylethyl)benzamide] | < 1000 | < 300 |
| COc1cc(C(=O)NC2CCN(C)CC2)ccc1Nc1ncc2c(n1)N(c1ccccc1)CCC(=O)N2C [Example 221, 3-methoxy-4-[(2-methyl-3-oxo-6-phenyl-2,6,8,10-tetrazabicyclo[5.4.0]undeca-8,10,12-trien-9-yl)amino]-N-(1-methyl-4-piperidyl)benzamide] | < 30000 | < 300 |
| CN1CCC(NC(=O)c2ccc(Nc3ncc4c(n3)N(c3ccccc3)CCC(=O)N4C)cc2)CC1 [Example 224, 4-[(2-methyl-3-oxo-6-phenyl-2,6,8,10-tetrazabicyclo[5.4.0]undeca-8,10,12-trien-9-yl)amino]-N-(1-methyl-4-piperidyl)benzamide] | < 30000 | < 300 |
| COc1cc(C(=O)NC2CCCCC2)ccc1Nc1ncc2c(n1)N(C1CCN(C)CC1)CCC(=O)N2C [Example 233, N-cyclohexyl-3-methoxy-4-[[2-methyl-6-(1-methyl-4-piperidyl)-3-oxo-2,6,8,10-tetrazabicyclo[5.4.0]undeca-7,9,11-trien-9-yl]amino]benzamide] | < 30000 | < 1000 |
| COc1cc(C(=O)NC2CCN(C)CC2)ccc1Nc1ncc2c(n1)N(C1CCCC1)C(C)CC(=O)N2C (stereo not shown) [Example 234, 4-[(6-cyclopentyl-2,5-dimethyl-3-oxo-2,6,8,10-tetrazabicyclo[5.4.0]undeca-8,10,12-trien-9-yl)amino]-3-methoxy-N-(1-methyl-4-piperidyl)benzamide] | < 1000 | < 300 |
| COc1cc(C(=O)NC2CCN(C)CC2)ccc1Nc1ncc2c(n1)N(C1CCCC1)CC(C)(C)C(=O)N2C [Example 235, 4-[(2-cyclopentyl-4,4,6-trimethyl-5-oxo-2,6,9,11-tetrazabicyclo[5.4.0]undeca-7,9,11-trien-10-yl)amino]-3-methoxy-N-(1-methyl-4-piperidyl)benzamide] | < 300 | < 300 |
| COc1cc(C(=O)NC2CCCN(C)C2)ccc1Nc1ncc2c(n1)N(C1CCCC1)CC(C)(C)C(=O)N2C (stereo not shown) [Example 243, 4-[(2-cyclopentyl-4,4,6-trimethyl-5-oxo-2,6,9,11-tetrazabicyclo[5.4.0]undeca-7,9,11-trien-10-yl)amino]-3-methoxy-N-(1-methyl-3-piperidyl)benzamide] | < 300 | < 1000 |

Next, values leading:

| IC50 [1] [nM] | IC50 (recombinant Plk1) [nM] | SMILES |
| --- | --- | --- |
| < 300 | < 1000 | CCOc1cc(C(=O)NC2CCN(C)CC2)ccc1Nc1ncc2c(n1)N(C1CCCC1)CCC(=O)N2C [Example 200, 4-[(6-cyclopentyl-2-methyl-3-oxo-2,6,8,10-tetrazabicyclo[5.4.0]undeca-8,10,12-trien-9-yl)amino]-3-ethoxy-N-(1-methyl-4-piperidyl)benzamide] |
| < 300 | < 300 | CC(C)N1CCC(=O)N(C)c2cnc(Nc3ccc(C(=O)NC4CCN(C)CC4)cc3Cl)nc21 [Example 203, 3-chloro-4-[(2-methyl-3-oxo-6-propan-2-yl-2,6,8,10-tetrazabicyclo[5.4.0]undeca-7,9,11-trien-9-yl)amino]-N-(1-methyl-4-piperidyl)benzamide] |
| < 300 | < 300 | COc1cc(C(=O)NCC(C)(C)CN(C)C)ccc1Nc1ncc2c(n1)N(C(C)C)CCC(=O)N2C [Example 208, N-(3-dimethylamino-2,2-dimethyl-propyl)-3-methoxy-4-[(2-methyl-3-oxo-6-propan-2-yl-2,6,8,10-tetrazabicyclo[5.4.0]undeca-7,9,11-trien-9-yl)amino]benzamide] |
| < 300 | < 300 | COc1cc(C(=O)NCCCCN2CCCC2)ccc1Nc1ncc2c(n1)N(C(C)C)CCC(=O)N2C [Example 209, 3-methoxy-4-[(2-methyl-3-oxo-6-propan-2-yl-2,6,8,10-tetrazabicyclo[5.4.0]undeca-7,9,11-trien-9-yl)amino]-N-(4-pyrrolidin-1-ylbutyl)benzamide] |
| < 30000 | < 1000 | COc1cc(C(=O)NC2CCN(C)CC2)ccc1Nc1ncc2c(n1)N(Cc1ccccc1)CCC(=O)N2C [Example 215, 4-[(6-benzyl-2-methyl-3-oxo-2,6,8,10-tetrazabicyclo[5.4.0]undeca-8,10,12-trien-9-yl)amino]-3-methoxy-N-(1-methyl-4-piperidyl)benzamide] |
| < 30000 | < 300 | CC(C)N1CCC(=O)N(C)c2cnc(Nc3ccc(C(=O)NCCN4CCOCC4)cc3)nc21 [Example 218, 4-[(2-methyl-3-oxo-6-propan-2-yl-2,6,8,10-tetrazabicyclo[5.4.0]undeca-7,9,11-trien-9-yl)amino]-N-(2-morpholin-4-ylethyl)benzamide] |
| < 30000 | < 1000 | COc1cc(C(=O)NCCN2CCOCC2)ccc1Nc1ncc2c(n1)N(c1ccccc1)CCC(=O)N2C [Example 220, 3-methoxy-4-[(2-methyl-3-oxo-6-phenyl-2,6,8,10-tetrazabicyclo[5.4.0]undeca-8,10,12-trien-9-yl)amino]-N-(2-morpholin-4-ylethyl)benzamide] |
| < 30000 | < 1000 | CN(C)CC(C)(C)CNC(=O)c1ccc(Nc2ncc3c(n2)N(c2ccccc2)CCC(=O)N3C)cc1 [Example 223, N-(3-dimethylamino-2,2-dimethyl-propyl)-4-[(2-methyl-3-oxo-6-phenyl-2,6,8,10-tetrazabicyclo[5.4.0]undeca-8,10,12-trien-9-yl)amino]benzamide] |
| < 30000 | < 1000 | CC(C)N1CCC(=O)N(C)c2cnc(Nc3ccc(C(=O)NCCN4CCOCC4)cc3Cl)nc21 [Example 228, 3-chloro-4-[(2-methyl-3-oxo-6-propan-2-yl-2,6,8,10-tetrazabicyclo[5.4.0]undeca-7,9,11-trien-9-yl)amino]-N-(2-morpholin-4-ylethyl)benzamide] |
| < 30000 | < 1000 | COCC(C)N1CCC(=O)N(C)c2cnc(Nc3ccc(C(=O)NC4CCN(C)CC4)cc3OC)nc21 (stereo not shown) [Example 230, 3-methoxy-4-[[6-(1-methoxypropan-2-yl)-2-methyl-3-oxo-2,6,8,10-tetrazabicyclo[5.4.0]undeca-7,9,11-trien-9-yl]amino]-N-(1-methyl-4-piperidyl)benzamide] |
| < 30000 | < 300 | COc1cc(C(=O)NC2CCN(C)CC2)ccc1Nc1ncc2c(n1)N(Cc1ccoc1)CCC(=O)N2C [Example 231, 4-[[6-(3-furylmethyl)-2-methyl-3-oxo-2,6,8,10-tetrazabicyclo[5.4.0]undeca-8,10,12-trien-9-yl]amino]-3-methoxy-N-(1-methyl-4-piperidyl)benzamide] |
| < 300 | < 1000 | COCCN1CCC(NC(=O)c2ccc(Nc3ncc4c(n3)N(C3CCCC3)CC(C)(C)C(=O)N4C)c(OC)c2)CC1 [Example 244, 4-[(2-cyclopentyl-4,4,6-trimethyl-5-oxo-2,6,9,11-tetrazabicyclo[5.4.0]undeca-7,9,11-trien-10-yl)amino]-3-methoxy-N-[1-(2-methoxyethyl)-4-piperidyl]benzamide] |
| < 300 | < 300 | CN1CCC(NC(=O)c2ccc(Nc3ncc4c(n3)N(C3CCCC3)CC(C)(C)C(=O)N4C)cc2)CC1 [Example 245, 4-[(2-cyclopentyl-4,4,6-trimethyl-5-oxo-2,6,9,11-tetrazabicyclo[5.4.0]undeca-7,9,11-trien-10-yl)amino]-N-(1-methyl-4-piperidyl)benzamide] |

Reference: patent US7709471B2, “Compounds” (AstraZeneca AB, priority 2006, dated 2010)
